Reference: patent US20230130102A1, “Na/K-ATPase LIGANDS AND USE THEREOF FOR TREATMENT OF CANCER” (Marshall University Research Corporation, priority 2019, published 2023)
Entries after “also recorded” stand apart in the source; their conditions may differ.

Experiments:
α1 NKA = target: T1, α1 NKA (Homo sapiens, UniProt P05023); assay: α1 NKA endocytosis (biotinylation assay) in subclone 4; type: cell-based; settings: xenograft derived clone 4
T1 construct: endogenous in cells; host or cells: subclone 4 (from DU145 α1 NKA knockdown xenograft)
Protocol: α1 NKA endocytosis assay. Endocytosis assay was performed as described before.

subclone 2 cells = assay: Boyden chamber migration assay; type: cell-based, human
Protocol: Boyden chamber assay. Different sub-clones were grown up to 100% confluency and then gently trypsinized with 0.05% trypsin-EDTA and 100,000 cells were plated in upper chamber of a […] containing transwell filter with 0.5% FBS containing media. Full serum (10% FBS) containing media was added to the lower chamber as chemoattractant. After 16 hours, a colorimetric assay was used to determine the migration of cells to the lower side of the filter, with absorbance read at 590 nm. Briefly, lower sides of the transwell were washed with 1×PBS and then fixed with ice cold methanol for 10 minutes. After gentle washes with 1×PBS, lower side of the filter were stained with Crystal violet solution (0.5% Crystal Violet in 20% Ethanol), washed and the stain was extracted with methanol. Result was normalized against migration of sub-clone 5 cells. For cell migration in presence of pharmacological compounds, cells at 100% confluency were pretreated for 24 hours with or without MB5, PP2 (Sigma-Aldrich, Catalogue No P0042) or FAK inhibitor I (Millipore, Catalogue No. 324877) and then assay was performed as described above.

PC3 cells [1] = assay: 3D culture spheroid invasion and growth, PC3; type: cell-based, human
Protocol: (§1) 3D culture-spheroid invasion assay. Cells were trypsinized gently (0.05% Trypsin-EDTA) and diluted at 1000 cells in 20 μl of full serum media for DU145 and C4-2 derived sub-clones or 500 cells in 20 ul for PC3 cells and allowed to form spheroids using hanging drop technique for 3 days, as described previously. Generated spheroids were then embedded into 3D matrix (not yet solidified at the time of experiment), as described in the previous section, on top of a 1% solidified agarose coating in 48 well plates. Spheroids were monitored from day 1 to different time points and images were taken using a phase contrast microscope fitted with camera, at same settings. Spheroid growth or invasion area was quantified using ImageJ software from NIH. The following formulas were used for quantitation of spheroids:
Spheroid invasion=(Invasion area/Spheroid area)*100
(§2) Spheroid growth=(Spheroid area at Day 3 or 7-Spheroid area at 16 hours)/Spheroid area at 16 hours
For drug treatment, compound was diluted into media, from stock solution. For MMP secretion, conditioned media for 3 days were collected from top of matrix and assessed for MMP secretion by Western blot using Matrix Remodeling Antibody Sampler kit from Cell Signaling Technology (Cat #73959).

PC3 cells [2] = assay: Spheroid aggregation in ultralow attachment plates, PC3; type: cell-based, human
Protocol: Spheroid aggregation in ultralow attachment plates. 5000 cells were plated in a 6 well ultralow attachment plate from Corning and allowed to form spheroids spontaneously for a week. Cell aggregates were then immunostained for E-cadherin expression using a monoclonal anti-E-cadherin antibody (Santacruz Biotechnology, Catalogue No.sc-71008), followed by Alexa-Fluor 488 anti-mouse secondary antibody (Thermo-Fisher).

KD cells from C4-2 = assay: Western blot of EMT phenotype in α1 KD cells derived from C4-2; type: cell-based, human; settings: KD cells from C4-2, 1 μM
Protocol: Cell lines. DU145, PC3 and C4-2 cell lines were purchased from and maintained according to ATCC recommendations. Parental DU145 and derived cell lines were cultured in high glucose […] supplemented with 10% Fetal Bovine Serum and 1% Penicillin/Streptomycin in 37° c. humidified incubator with 5% C02. LLC-PK1, PY17, Y260A, A425P and YFP-α1TCN cells were cultured in the same media and under similar conditions. PC3 and C4-2 cell lines were cultured in RPMI medium with similar conditions as described above. α1 knockdown KD cells were generated from DU145 and C4-2 using a α1 NKA-specific siRNA, as previously described. Knockdown was verified by both qPCR and Western blot analyses. Rat α1 NKA rescued cell lines were generated by transfecting KD cells with a pRC/CMV-α1 AACm1 vector followed by selection with ouabain (2 μM), as previously described. Cells were passaged for three generations without ouabain before conducting experiments.
Western blot, Immunoprecipitation and Immunostaining. Cells were grown to 100% confluency and Western blot were performed as described before. Images were quantified with ImageJ software from NIH. […]

parental C4-2 cells = assay: 3D culture spheroid growth, C4-2; type: cell-based, human; settings: parental C4-2, 0.1-2 μM, Day 1-7
Protocol: as §1, §2

A425P and Y260A cells = assay: basal ERK activation in Src binding mutant Y260A and A425P cells; type: cell-based, pig
Protocol: Characterization of MB5 activity on the NKA receptor function known as the NKA/Src binary receptor mechanism was conducted in a pig kidney epithelial cells (LLC-PK1)-based platform using immunostaining and Western blot analyses. […] The change of NKA conformation that occurs upon binding of agonists such as ouabain, results in the release and activation of the Src kinase domain from the “Naktide” site of NKA CD3, while the other interaction (constitutive) persists between NKA CD2 and the SH2 domain of Src. […] In LLC-PK1-derived cells with low NKA receptor constitutive activity due to substantial reduction (over 80%) of α1 NKA expression by siRNA (PY17 cells), increased basal Src and ERK activity is observed due to the abnormally high amount of Src kinase that remains in an active conformation. Increased basal Src and ERK activity is also observed in LLC-PK1-derived cells with reduced NKA receptor constitutive activity that result from mutations in either domain of interaction with Src without alteration of the ion pumping activity (e.g. A425P on the Naktide sequence, or Y260A on the CD2 domain).

plasma stability = type: in vitro ADME
DU145 derived subclones = assay: Western blot / immunostaining of EMT markers, Src/FAK activation and proliferation markers in DU145 derived subclones; type: cell-based, human; settings: subclone 2 cells, 1 μM, 24 hours

Question: Which “α1 NKA endocytosis” value (α1 NKA) does the source give for `O=c1c2cccc(O)c2oc2c(O)c(O)ccc12` [MB5] here?
Answer: Its value is “abolished α1 NKA endocytosis; also recorded: significantly reduced α1 NKA endocytosis”.

Question: What about the “inhibition of migration of cancer cells” value (subclone 2 cells; Boyden chamber assay, clone 2) of the same molecule?
Answer: The value was “about 50%”.

Question: And the “cell migration compared with PP2 and FAK inhibitor” value (subclone 2 cells; clone 2)?
Answer: Its value is “as effectively as other kinase inhibitors”.

Question: And the “reduction of cell migration” value (subclone 2 cells; pretreatment with 100 nM for 24 hours, subclone 2)?
Answer: The value was 50%.

Question: And the “inhibition of spheroid size” value (PC3 cells [1]; PC3, 0.1 μM)?
Answer: Its value is “about 25%”.

Question: And the “inhibition of spheroid size” value (PC3 cells [1]; PC3, 1 μM)?
Answer: Its value is roughly 50%.

Question: And the “spheroid size / growth” value (PC3 cells [1]; PC3 spheroids)?
Answer: Its value is “reduced spheroid invasion and growth; also recorded: reduced spheroid size in a concentration-dependent manner”.

Question: And the spheroid invasion (PC3 cells [1]; PC3 spheroids, day 7)?
Answer: The spheroid invasion was “reduced spheroid invasion; also recorded: suppressed spheroid invasion; also recorded: reduced both invasion”.

Question: What about the cell aggregation (PC3 cells [2]; PC3, ultralow attachment plates) of the same molecule?
Answer: Its cell aggregation is “increased cell aggregation in a concentration-dependent manner”.

Question: And the E-cadherin expression (PC3 cells [2]; PC3 aggregates, immunostaining)?
Answer: The E-cadherin expression was “significantly increased E-cadherin expression”.

Question: What about the “expression of SNAIL, SLUG and Myc” value (KD cells from C4-2) of the same molecule?
Answer: The value was “inhibiting the expression of SNAIL, SLUG and Myc”.

Question: And the “occludin and E-cadherin expression” value (KD cells from C4-2)?
Answer: The value was “upregulate occludin and E-cadherin expression”.

Question: What about the spheroid growth (parental C4-2 cells) of the same molecule?
Answer: Its spheroid growth is “did not significantly affect spheroid growth”.

Question: And the “basal ERK phosphorylation” value (A425P and Y260A cells)?
Answer: Its value is “did not reduce high levels of ERK phosphorylation”.

Question: What about the plasma stability (plasma stability) of the same molecule?
Answer: The plasma stability was “good plasma stability”.

Question: What about the “E-cadherin and occludin expression (immunostaining)” value (DU145 derived subclones) of the same molecule?
Answer: The value was “Increase in E-cadherin and occludin expression”.
